{
  "source": "paper PMC6100079",
  "about": "“Design, Synthesis, and Evaluation of Homochiral Peptides Containing Arginine and Histidine as Molecular Transporters” (Molecules : A Journal of Synthetic Chemistry and Natural …, 2018)",
  "key": {"SK-OV-3 cells": {"tested_on": "SK-OV-3 cells", "experiment": "Antiproliferative assay of anticancer drugs using C20-(HR)4 in SK-OV-3 cells", "assay_type": "cell-based, human", "details": "SK-OV-3 (for doxorubicin, epirubicin per b1 and b46; not restated for the 1.5 fold sentence); drug 5 µM + C20-(HR)4 50 µM; 72 h; vs drug alone", "experimental": "(§1) All bioassays were performed in triplicate."}, "CCRF-CEM cells": {"tested_on": "CCRF-CEM cells", "experiment": "Antiproliferative assay of anticancer drugs using C20-(HR)4 in CCRF-CEM cells", "details": "drug 5 µM + C20-(HR)4 50 µM, 72 h, vs drug alone"}, "[1]": {"tested_on": "human leukemia cancer cell line (CCRF-CEM)", "experiment": "Cytotoxicity (MTS proliferation assay) of peptides in CCRF-CEM cells", "assay_type": "cell-based", "experimental": "as §1\n(§2) The linear and cyclic peptides at concentrations (5, 10, 25, 50 and 100 µM) were added to the cells and incubated at 37 °C with 5% carbon dioxide for 72 h. After 72 h of incubation, the pH of media were tested. […] Then 20 µL of MTS reagent was added to each well. […] The […] of the formazan product was measured at 490 nm using a Spectra Max M2 microplate spectrophotometer. The percentage of cell survival was calculated as [(OD value of cells treated with the test mixture of compounds) − (OD value of culture medium)]/[(OD value of control cells) − (OD value of culture medium)] × 100%."}, "[2]": {"tested_on": "human ovarian adenocarcinoma (SK-OV-3) cells", "experiment": "Cytotoxicity (MTS proliferation assay) of peptides in SK-OV-3 cells", "assay_type": "cell-based", "experimental": "as §1, §2"}, "[3]": {"details": "SK-OV-3, up to / at 50 µM peptide"}},
  "note": "Ends that are not written are not given here. Peptide text beside a SMILES is read from it. * marks the point of attachment. Oleoyl = CCCCCCCC/C=C\\CCCCCCCC(=O)*; HOOC(CH2)6CO = O=C(O)CCCCCCC(=O)*; Palmitoyl = CCCCCCCCCCCCCCCC(=O)*; Myristoyl = CCCCCCCCCCCCCC(=O)*; Lauroyl = CCCCCCCCCCCC(=O)*",
  "data": [
    {"compound": "COc1cc([C@@H]2c3cc4c(cc3[C@@H](O[C@@H]3O[C@@H]5CO[C@@H](C)O[C@H]5[C@H](O)[C@H]3O)[C@H]3COC(=O)[C@H]23)OCO4)cc(OC)c1O", "note": "[etoposide]", "values": [
      {"measurement": "improvement of the drug's anti-proliferation potency / toxicity upon loading (physical mixture) with C20-(HR)4", "setting": "SK-OV-3 cells", "result": "one and half"},
      {"measurement": "improvement of the drug's anti-proliferating potency by C20-(HR)4", "setting": "CCRF-CEM cells", "result": "did not improve"}
    ]},
    {"compound": "CC(=O)O[C@H]1C(=O)[C@@]2(C)[C@H]([C@H](OC(=O)c3ccccc3)[C@]3(O)C[C@H](OC(=O)[C@H](O)[C@@H](NC(=O)c4ccccc4)c4ccccc4)C(C)=C1C3(C)C)[C@]1(OC(C)=O)CO[C@@H]1C[C@@H]2O", "note": "[paclitaxel]", "values": [
      {"measurement": "improvement of the drug's anti-proliferating potency by C20-(HR)4", "setting": "CCRF-CEM cells", "result": "did not improve"}
    ]},
    {"compound": "Ac-HRHRHRHR [C2-(HR)4]", "values": [
      {"measurement": "cytotoxicity (in words)", "setting": "[1]; up to / at 50 µM peptide", "result": "not toxic"},
      {"measurement": "cytotoxicity (in words)", "setting": "[2]; [3]", "result": "not toxic"}
    ]},
    {"compound": "N=C(N)NCCC[C@H](NC(=O)[C@H](Cc1c[nH]cn1)NC(=O)[C@H](CCCNC(=N)N)NC(=O)[C@H](Cc1c[nH]cn1)NC(=O)[C@H](CCCNC(=N)N)NC(=O)[C@H](Cc1c[nH]cn1)NC(=O)[C@H](CCCNC(=N)N)NC(=O)[C@H](Cc1c[nH]cn1)NC(=O)CCCCCCC(=O)O)C(=O)O", "note": "[C8-(HR)4] ({HOOC(CH2)6CO}-HRHRHRHR-OH)", "values": [
      {"measurement": "cytotoxicity (in words)", "setting": "[1]; 100 µM peptide", "result": "mild cytotoxicity"},
      {"measurement": "cytotoxicity (in words)", "setting": "[1]; up to / at 50 µM peptide", "result": "not toxic"},
      {"measurement": "cytotoxicity (in words)", "setting": "[1]; up to / at 50 µM peptide, listed as C8", "result": "did not show cytotoxicity"},
      {"measurement": "cytotoxicity (in words)", "setting": "[2]; SK-OV-3, 100 µM peptide", "result": "mild cytotoxicity"},
      {"measurement": "cytotoxicity (in words)", "setting": "[2]; [3]", "result": "not toxic"},
      {"measurement": "cytotoxicity (in words)", "setting": "[2]; SK-OV-3, up to / at 50 µM peptide, listed as C8", "result": "did not show cytotoxicity"}
    ]},
    {"compound": "CCCCCCCCCCCCCCCC(=O)N[C@@H](Cc1c[nH]cn1)C(=O)N[C@@H](CCCNC(=N)N)C(=O)N[C@@H](Cc1c[nH]cn1)C(=O)N[C@@H](CCCNC(=N)N)C(=O)N[C@@H](Cc1c[nH]cn1)C(=O)N[C@@H](CCCNC(=N)N)C(=O)N[C@@H](Cc1c[nH]cn1)C(=O)N[C@@H](CCCNC(=N)N)C(=O)O", "note": "[C16-(HR)4] (Palmitoyl-HRHRHRHR-OH)", "values": [
      {"measurement": "cytotoxic effect", "setting": "[1]; 10 µM peptide, 72 h, MTS", "result": 0, "unit": "%"},
      {"measurement": "cytotoxicity (in words)", "setting": "[1]; up to / at 50 µM peptide", "result": "significant reduction in the cell viability"},
      {"measurement": "reduction in cell viability", "setting": "[2]; SK-OV-3 (sentence speaks of both cell lines), 50 and 100 µM peptide, respectively, 72 h, MTS", "result": "35–70%"},
      {"measurement": "cytotoxic effect / reduction of proliferation", "setting": "[2]; SK-OV-3, 10 µM peptide, 72 h, MTS", "result": 0, "unit": "%"},
      {"measurement": "reduction of proliferation", "setting": "[2]; SK-OV-3, 50 µM peptide", "result": 11, "unit": "%"},
      {"measurement": "cytotoxicity (in words)", "setting": "[2]; [3]", "result": "significant reduction in the cell viability"}
    ]},
    {"compound": "CCCCCCCCCCCCCC(=O)N[C@@H](Cc1c[nH]cn1)C(=O)N[C@@H](CCCNC(=N)N)C(=O)N[C@@H](Cc1c[nH]cn1)C(=O)N[C@@H](CCCNC(=N)N)C(=O)N[C@@H](Cc1c[nH]cn1)C(=O)N[C@@H](CCCNC(=N)N)C(=O)N[C@@H](Cc1c[nH]cn1)C(=O)N[C@@H](CCCNC(=N)N)C(=O)O", "note": "[C14-(HR)4] (Myristoyl-HRHRHRHR-OH)", "values": [
      {"measurement": "cytotoxicity (in words)", "setting": "[1]; 100 µM peptide", "result": "mild cytotoxicity"},
      {"measurement": "cytotoxicity (in words)", "setting": "[1]; up to / at 50 µM peptide", "result": "not toxic"},
      {"measurement": "cytotoxicity (in words)", "setting": "[1]; up to / at 50 µM peptide, listed as C14", "result": "did not show cytotoxicity"},
      {"measurement": "cytotoxicity (in words)", "setting": "[2]; SK-OV-3, 100 µM peptide", "result": "mild cytotoxicity"},
      {"measurement": "cytotoxicity (in words)", "setting": "[2]; [3]", "result": "not toxic"},
      {"measurement": "cytotoxicity (in words)", "setting": "[2]; SK-OV-3, up to / at 50 µM peptide, listed as C14", "result": "did not show cytotoxicity"}
    ]},
    {"compound": "CCCCCCCCCCCC(=O)N[C@@H](Cc1c[nH]cn1)C(=O)N[C@@H](CCCNC(=N)N)C(=O)N[C@@H](Cc1c[nH]cn1)C(=O)N[C@@H](CCCNC(=N)N)C(=O)N[C@@H](Cc1c[nH]cn1)C(=O)N[C@@H](CCCNC(=N)N)C(=O)N[C@@H](Cc1c[nH]cn1)C(=O)N[C@@H](CCCNC(=N)N)C(=O)O", "note": "[C12-(HR)4] (Lauroyl-HRHRHRHR-OH)", "values": [
      {"measurement": "cytotoxicity (in words)", "setting": "[1]; 100 µM peptide", "result": "mild cytotoxicity"},
      {"measurement": "cytotoxicity (in words)", "setting": "[1]; up to / at 50 µM peptide", "result": "not toxic"},
      {"measurement": "cytotoxicity (in words)", "setting": "[1]; up to / at 50 µM peptide, listed as C12", "result": "did not show cytotoxicity"},
      {"measurement": "cytotoxicity (in words)", "setting": "[2]; SK-OV-3, 100 µM peptide", "result": "mild cytotoxicity"},
      {"measurement": "cytotoxicity (in words)", "setting": "[2]; [3]", "result": "not toxic"},
      {"measurement": "cytotoxicity (in words)", "setting": "[2]; SK-OV-3, up to / at 50 µM peptide, listed as C12", "result": "did not show cytotoxicity"}
    ]},
    {"compound": "CCCCCCCC/C=C\\CCCCCCCC(=O)N[C@@H](Cc1c[nH]cn1)C(=O)N[C@@H](CCCNC(=N)N)C(=O)N[C@@H](Cc1c[nH]cn1)C(=O)N[C@@H](CCCNC(=N)N)C(=O)N[C@@H](Cc1c[nH]cn1)C(=O)N[C@@H](CCCNC(=N)N)C(=O)N[C@@H](Cc1c[nH]cn1)C(=O)N[C@@H](CCCNC(=N)N)C(=O)O", "note": "[C18-(HR)4] (Oleoyl-HRHRHRHR-OH)", "values": [
      {"measurement": "cytotoxicity (in words)", "setting": "[1]; 100 µM peptide", "result": "mild cytotoxicity"},
      {"measurement": "cytotoxicity (in words)", "setting": "[1]; up to / at 50 µM peptide", "result": "not toxic"},
      {"measurement": "cytotoxicity (in words)", "setting": "[1]; up to / at 50 µM peptide, listed as C18", "result": "did not show cytotoxicity"},
      {"measurement": "cytotoxicity (in words)", "setting": "[2]; SK-OV-3, 100 µM peptide", "result": "mild cytotoxicity"},
      {"measurement": "cytotoxicity (in words)", "setting": "[2]; [3]", "result": "not toxic"},
      {"measurement": "cytotoxicity (in words)", "setting": "[2]; SK-OV-3, up to / at 50 µM peptide, listed as C18", "result": "did not show cytotoxicity"}
    ]}
  ]
}
